Test results: PubChem BioAssay (NCI)
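Values below derive from 48-hour exposures of cells grown in 96-well plates, with endpoints linearly interpolated between the two concentrations bracketing the appropriate inhibition level. The concentration for 50% growth inhibition is given as GI50. TGI: concentration producing complete growth inhibition.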

Tests used:
Test in all cases: NCI-60 cell line screen, 48 h
[1] = test system: SF-295 CNS
[2] = test system: SNB-75 CNS
[3] = test system: SK-MEL-28 melanoma
[4] = test system: U251 CNS
[5] = test system: MDA-MB-435
[6] = test system: OVCAR-3 ovarian
[7] = test system: SW-620 colon
[8] = test system: DLD-1 colon
[9] = test system: HOP-62 NSCLC
[10] = test system: SF-268 CNS
[11] = test system: ACHN renal
[12] = test system: OVCAR-4 ovarian
[13] = test system: MCF7 breast
[14] = test system: RXF-631 renal
[15] = test system: TK-10 renal
[16] = test system: HT29 colon
[17] = test system: CCRF-CEM leukemia
[18] = test system: SR leukemia
[19] = test system: K-562 leukemia
[20] = test system: UACC-62 melanoma
[21] = test system: HCC-2998 colon
[22] = test system: NCI-H226 lung
[23] = test system: T-47D breast
[24] = test system: 786-0 renal
[25] = test system: OVCAR-8 ovarian
[26] = test system: MOLT-4 leukemia
[27] = test system: HOP-18 NSCLC
[28] = test system: HCT-15 colon
[29] = test system: DMS 273 small cell lung
[30] = test system: SK-MEL-2 melanoma
[31] = test system: BT-549 breast
[32] = test system: A498 renal
[33] = test system: A549 NSCLC
[34] = test system: NCI-H460 lung
[35] = test system: MDA-MB-231 breast
[36] = test system: HCT-116 colon
[37] = test system: XF 498 CNS
[38] = test system: NCI-H522 lung
[39] = test system: IGROV1 ovarian
[40] = test system: UO-31 renal
[41] = test system: UACC-257 melanoma
[42] = test system: SNB-78 CNS
[43] = test system: DMS 114 small cell lung
[44] = test system: COLO 205 colon
[45] = test system: HOP-92 NSCLC
[46] = test system: MALME-3M melanoma
[47] = test system: LOX IMVI melanoma
[48] = test system: DU-145 prostate
[49] = test system: RPMI-8226 leukemia
[50] = test system: M14 melanoma
[51] = test system: SK-OV-3 ovarian
[52] = test system: RXF 393 renal
[53] = test system: HL-60(TB) leukemia
[54] = test system: SNB-19 CNS
[55] = test system: SF-539 CNS
[56] = test system: PC-3 prostate
[57] = test system: SN12C renal
[58] = test system: MDA-N
[59] = test system: M19-MEL melanoma
[60] = test system: SK-MEL-5 melanoma
[61] = test system: OVCAR-5 ovarian
[62] = test system: KM20L2 colon
[63] = test system: NCI-H23 lung
[64] = test system: EKVX NSCLC
[65] = test system: LXFL 529 NSCLC
[66] = test system: CAKI-1 renal
[67] = test system: KM12 colon

CCCC/C=C1\CCC(CN2CCOCC2)C1=O (stereo not drawn)
TGI [1]: 29.8 µM
TGI [2]: 20.7 µM
TGI [3]: 7.97 µM
TGI [4]: 8.35 µM
TGI [5]: 23 µM
TGI [6]: 19.3 µM
TGI [7]: 5.13 µM
TGI [8]: 3.13 µM
TGI [9]: 30.2 µM
TGI [10]: 36.3 µM
TGI [11]: 8.23 µM
TGI [12]: 36.1 µM
TGI [13]: 4.93 µM
TGI [14]: 29.2 µM
TGI [15]: 19.5 µM
TGI [16]: 12.1 µM
TGI [17]: 3.35 µM
TGI [18]: 5.23 µM
TGI [19]: 5.82 µM
TGI [20]: 16 µM
TGI [21]: 22.1 µM
TGI [22]: 24.2 µM
TGI [23]: 31.3 µM
TGI [24]: 4.25 µM
TGI [25]: 22.5 µM
TGI [26]: 10.7 µM
TGI [27]: 2.05 µM
GI50 [28]: 3.05 µM
TGI [28]: 9.3 µM
TGI [29]: 17.6 µM
TGI [30]: 23.8 µM
TGI [31]: 9.47 µM
TGI [32]: 27.4 µM
TGI [33]: 46.2 µM
TGI [34]: 38.2 µM
TGI [35]: 14.5 µM
TGI [36]: 5.55 µM
TGI [37]: 3.15 µM
TGI [38]: 2.17 µM
TGI [39]: 29.2 µM
TGI [40]: 11.6 µM
TGI [41]: 13.5 µM
TGI [42]: 32.3 µM
TGI [43]: 15.8 µM
TGI [44]: 9.49 µM
TGI [45]: 3.72 µM
TGI [46]: 4.95 µM
TGI [47]: 3.14 µM
TGI [48]: 32.8 µM
TGI [49]: 2.59 µM
TGI [50]: 10.3 µM
TGI [51]: 31 µM
TGI [52]: 2.89 µM
GI50 [53]: 0.566 µM
TGI [53]: 5.61 µM
TGI [54]: 29.6 µM
TGI [55]: 17.5 µM
TGI [56]: 26.2 µM
TGI [57]: 10.7 µM
TGI [58]: 22.7 µM
TGI [59]: 15.2 µM
TGI [60]: 26.9 µM
TGI [61]: 32.9 µM
TGI [62]: 11.4 µM
TGI [63]: 12.2 µM
TGI [64]: 28.3 µM
TGI [65]: 2.74 µM
TGI [66]: 3.74 µM
TGI [67]: 7.38 µM

CC(C)[C@H](COC(C)(C)C)N=CN1CSc2ccccc21
TGI [1]: 67.4 µM
TGI [2]: 77.1 µM
TGI [3]: > 100 µM
TGI [4]: > 100 µM
TGI [6]: 58.2 µM
TGI [7]: > 100 µM
TGI [8]: > 100 µM
TGI [9]: > 100 µM
TGI [10]: > 100 µM
TGI [11]: 71.4 µM
TGI [12]: > 100 µM
TGI [14]: > 100 µM
TGI [15]: > 100 µM
TGI [16]: > 100 µM
TGI [17]: > 100 µM
TGI [19]: > 100 µM
TGI [20]: > 100 µM
TGI [21]: > 100 µM
TGI [22]: > 100 µM
TGI [24]: > 100 µM
TGI [25]: > 100 µM
TGI [26]: > 100 µM
TGI [28]: > 100 µM
TGI [29]: 37.8 µM
TGI [30]: > 100 µM
TGI [32]: > 100 µM
TGI [33]: > 100 µM
TGI [34]: > 100 µM
TGI [36]: 79.2 µM
TGI [37]: 47.8 µM
TGI [38]: > 100 µM
TGI [39]: > 100 µM
TGI [40]: > 100 µM
TGI [42]: 81.5 µM
TGI [43]: 62.1 µM
TGI [44]: 39.4 µM
TGI [45]: 41.9 µM
TGI [47]: 93.2 µM
TGI [49]: 54 µM
TGI [50]: > 100 µM
TGI [51]: 78.3 µM
TGI [52]: 95.2 µM
TGI [53]: 57.1 µM
TGI [54]: > 100 µM
TGI [55]: 65.6 µM
TGI [57]: 84.1 µM
TGI [59]: > 100 µM
TGI [60]: 63 µM
TGI [61]: > 100 µM
TGI [62]: > 100 µM
TGI [63]: > 100 µM
TGI [64]: > 100 µM
TGI [65]: > 100 µM
TGI [67]: > 100 µM
